Data published in patent US20230173029A1, “TREATMENT OF CARDIAC REMODELLING” (UNIVERSITETET I OSLO, priority 2020, published 2023).

Legend:
[1] = tested on: Dahl salt-sensitive (Dahl/SS) male rats; test: Autopsy: body weight, heart weight and heart weight to body weight ratio in hypertensive Dahl/SS rats; format: in vivo, rat; conditions: for HW (heart weight) / HW/BW: HT Dahl/SS rats on high salt diet, at 6 weeks, mean ± SEM
Procedure: (§1) A total of 29 adult Dahl salt-sensitive (Dahl/SS) male rats with an initial weight of 150 to 200 g were included in the study. Rats were purchased from Charles River Laboratories (USA) and housed in a room with a 12/12-hour light cycle, a temperature of 21° C., and a humidity of 55%. Rats were maintained on a normal salt diet up to seven weeks of age. Twenty-two Dahl/SS were then randomly switched to a high salt diet for 6 weeks to induce hypertension, whilst 7 rats were kept normotensive (NT) on normal salt diet. Drinking water and food was provided ad libitum.
After 2 weeks of high salt diet, 15 hypertensive (HT) rats were started on treatment with proANP31-67. Rats treated with proANP31-67 received one of two dosages: 50 ng/kg/day (n=8) or 100 ng/kg/day (n=7). A total of 14 rats received only vehicle: control rats on a normal salt diet (n=7); and HT rats on a high salt diet (n=7). Rats were randomly assigned to the 3 groups (i.e. control normal salt; high salt untreated; high salt plus treatment).
Drug or vehicle was delivered via Alzet osmotic mini-pumps (Model 2004; mean pumping rate […], mean fill volume […]) implanted subcutaneously (as instructed by the manufacturer) for 28 days. Animals were treated with buprenorphine (0.05 mg/kg s.c.) as analgesic 30 minutes before and up to 1 day following implantation of pumps.
Experiments were performed as described above in Example 1, using a group of 8 Dahl/SS rats which, at 7 weeks of age, were switched to a high salt diet as described above. After 2 weeks of high salt diet, this group was started on proANP31-67 treatment. The rats were administered proANP31-67 at a renal sub-therapeutic dosage of 25 ng/kg/day.

[2] = tested on: Dahl salt-sensitive (Dahl/SS) male rats; test: Histochemistry of left ventricle collagen deposition (Masson's trichrome) and collagen cross-linking (Picrosirius Red); format: in vivo, rat; conditions: HT Dahl/SS rats, 50 or 100 ng/kg/day s.c. (pooled), not significant, FIG. 2
Procedure: as §1
After 2 weeks of high salt diet, 15 hypertensive (HT) rats were started on treatment with proANP31-67. […]
Hearts were excised, rinsed in PBS, quickly blotted on gauze, and then fixed in 10% formalin for a minimum of 24 hr. […] Stained sections were scanned (20× magnification) with AxioScan Z1 (Carl Zeiss), to obtain whole cross-sections for collagen quantification. Total fibrosis area (%) and perivascular fibrosis (ratio of the area of fibrosis surrounding the vessel wall to the lumen area) were quantified using ZEN2 blue edition (Zeiss, Jena, Germany). […] The degree of cross-linked collagen was calculated as the ratio between cross-linked collagen and total collagen. All histological quantifications were independently performed by three trained researchers blinded to rat groups.

[3] = tested on: Myh7; test: Myh7 gene expression in left ventricle tissue by qPCR; format: in vivo, rat; conditions: HT Dahl/SS rats
Procedure: as §1
After 2 weeks of high salt diet, 15 hypertensive (HT) rats were started on treatment with proANP31-67. Rats treated with proANP31-67 received one of two dosages: 50 ng/kg/day (n=8) or 100 ng/kg/day (n=7). […]
Total RNA was extracted from left ventricle tissue using an RNeasy Fibrous Tissue Mini Kit (Qiagen, Cat. #74704). RNA concentration and quality was assessed by NanoDrop ND-1000 Spectrophotometer (Thermo Fisher Scientific). cDNA synthesis was performed using an iSCRIPT synthesis kit (Bio-Rad). Transcript levels of Mhy7 (Rn00568328_m1) and Rpl32 (Rn00820748_g1) were determined using TaqMan assays (Applied Biosystems) detected on a QuantStudio3 (Thermo Fisher Scientific) and analysed using QuantStudio™ Design (Thermo Fisher Scientific). Mhy7 mRNA levels were calculated by the ΔΔCt method and normalized to Rpl32 transcript value. […]

[4] = tested on: rat neonatal cardiomyocytes; test: In vitro [3H]leucine incorporation in ANGII-stimulated neonatal cardiomyocytes; format: cell-based; conditions: 24 h
Procedure: Primary cultures of rat cardiomyocyte cells were prepared as previously described (Larsen et al., Cardiovascular Research 80(1): 47-54, 2008). In brief, hearts from 1-3 day old Wistar rats (Taconic), were isolated by […] and pancreatin digestion. Cardiomyocytes were separated from noncardiomyocytes by differential attachment to uncoated culture flasks (90151; Techno Plastic Products). Cardiomyocytes were allowed to attach to 6- or 12-well culture plates (Corning International, Corning, N.Y.) coated with gelatine/fibronectin (G-1890/F1141; Sigma, St. Louis, Mo.) overnight in plating medium (2 or 1 ml) at a density of 2.5×10^5 cells/ml medium [DMEM (41965; GIBCO-BRL, Invitrogen) supplemented with penicillin/streptomycin/glutamine (G6784; Sigma), medium 199 (31150; GIBCO-BRL), HEPES (15630; GIBCO-BRL), horse serum (14-703E; Bio-Whittaker, Lonza), and fetal calf serum (14-701E; Bio-Whittaker)]. […]
5 μCi/ml [3H]leucine (American Radiolabeled Chemicals) were added at the same time as ANG II and the cells were washed six times in 95% EtOH before being harvested in 0.2 M NaOH 24 h after stimulation, as previously described (Halvorsen et al., Journal of Lipid Research 39(4): 901-912, 1998). […] [3H]leucine incorporation was quantified by measuring counts per minute in duplicates from each sample with the Wallac Winspectral 1414 liquid scintillation counter (PerkinElmer). […]

[5] = 50 or 100 ng/kg/day s.c. (pooled) for 28 days

proANP31-67: Human proANP31-67, linear peptide fragment of proANP consisting of SEQ ID NO: 1; also known as vessel dilator, VSDL (EVVPPQVLSEPNEEAGAALSPLPEVPPWTGEVSPAQR; listed as Homo sapiens)
HW (heart weight) ([1]; 25 ng/kg/day s.c.): 1304 ± 41.4 mg
HW/BW ([1]; 25 ng/kg/day s.c.): 3.68 ± 0.07
HW (heart weight) [1, 5]: 1365 ± 30.1 mg
HW/BW [1, 5]: 3.97 ± 0.1 mg/g
increase in HW/BW relative to NT rats ([1]; HT Dahl/SS rats, 25 ng/kg/day s.c., FIG. 5B): no increase
percentage increase in heart weight/body weight compared to NT ([1]; HT Dahl/SS rats, 50 or 100 ng/kg/day s.c. (pooled), FIG. 1B): less than 5%
increase of interstitial LV fibrosis compared to NT rats [2]: 14%
increase of perivascular LV fibrosis compared to NT rats [2]: 35%
expression of the Myh7 gene associated with adverse cardiac hypertrophy ([3]; 25 ng/kg/day s.c., FIG. 5F): attenuated
expression of the Myh7 gene associated with adverse cardiac hypertrophy ([3]; 50 or 100 ng/kg/day s.c. (pooled), FIG. 1F): attenuated
ANGII-induced hypertrophy as indexed by [3H]-leucine incorporation ([4]; 37.5 ng/ml proANP31-67, 1 μM ANG II): prevented
ANGII-induced hypertrophy as indexed by [3H]-leucine incorporation ([4]; 150 ng/ml proANP31-67, 1 μM ANG II): prevented
